Test results published in the NIST ThermoML archive (doi:10.1016/j.jct.2009.10.007).
Numbers after ± are expanded uncertainties.

Test: refractive index (Na D-line) (dimensionless); mn = molality of the nth substance listed, in mol/kg
Settings: 308.15 K, 101 kPa, Liquid, Standard Abbe refractometry

Row | refractive index (m1 = 0.034) | refractive index (m1 = 0.0682) | refractive index (m1 = 0.1015) | refractive index (m1 = 0.1424) | refractive index (m1 = 0.1771) | refractive index (m1 = 0.2157) | refractive index (m1 = 0.2524) | refractive index (m1 = 0.2847) | refractive index (m1 = 0.3319) | refractive index (m1 = 0.3674) | refractive index (m2 = 0) | Structure (SMILES)
1 | 1.3328 ± 0.0005 | 1.3345 ± 0.0005 | 1.3361 ± 0.0005 | 1.3379 ± 0.0005 | 1.3393 ± 0.0005 | 1.341 ± 0.0005 | 1.3425 ± 0.0005 | 1.3438 ± 0.0005 | 1.3456 ± 0.0005 | 1.3469 ± 0.0005 |  | O=C([O-])CC(O)(CC(=O)[O-])C(=O)[O-].[Na+].[Na+].[Na+] [trisodium citrate] + O
2 |  |  |  |  |  |  |  |  |  |  | 1.3311 ± 0.0005 | O [water] + CCCCn1cc[n+](C)c1.[Br-]
3 |  |  |  |  |  |  |  |  |  |  | 1.3311 ± 0.0005 | O [water] + O=C([O-])CC(O)(CC(=O)[O-])C(=O)[O-].[Na+].[Na+].[Na+]
